Results on two compounds are retold here after PMC9024521, “4-Heteroaryl Substituted Amino-3,5-Dicyanopyridines as New Adenosine Receptor Ligands: Novel Insights on Structure-Activity Relationships and Perspectives” (Pharmaceuticals, 2022).

In series [1] the target is T1, hA3AR (Homo sapiens, UniProt P0DMS8).
T1 construct: host or cells: CHO cells
T1 sequence (P0DMS8 1-318): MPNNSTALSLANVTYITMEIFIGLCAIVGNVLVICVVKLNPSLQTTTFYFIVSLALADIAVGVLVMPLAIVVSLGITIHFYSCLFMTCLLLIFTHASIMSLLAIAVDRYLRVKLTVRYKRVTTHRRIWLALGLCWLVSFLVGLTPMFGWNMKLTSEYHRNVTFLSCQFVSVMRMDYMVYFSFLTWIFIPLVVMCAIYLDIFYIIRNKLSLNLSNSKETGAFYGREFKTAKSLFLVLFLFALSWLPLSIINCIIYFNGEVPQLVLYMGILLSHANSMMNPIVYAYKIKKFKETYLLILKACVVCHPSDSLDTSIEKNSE
The experiment in a line: Competition binding, [125I]AB-MECA, hA3 CHO cell membranes. The note with it: displacement of [125I]AB-MECA, hA3 CHO cells; mean ± SEM of four assays. As to the method: (§1) CHO cells transfected with hA1, hA2A, hA2B and hA3 ARs (Perkin Elmer, Boston, MA, USA) were grown adherently and maintained in Dulbecco’s modified Eagle’s medium with nutrient mixture F12, containing 10% fetal calf serum, penicillin (100 U/mL), streptomycin (100 μg/mL), L-glutamine (2 mM) and geneticine (G418; 0.2 mg/mL), at 37 °C, in 5% CO2/95% air, until their use in cAMP assays. For membrane preparation, the culture medium was removed, and the cells were washed with phosphate-buffered saline and scraped off T75 flasks in ice-cold hypotonic buffer (5 mM Tris HCl, 1 mM EDTA, pH 7.4). The cell suspension was homogenized with a Polytron, centrifuged for 30 min at 40,000× g, at 4 °C, and the resulting membrane pellet was used for competition binding experiments.
(§2) All synthesized compounds were tested for their affinity to hA1, hA2A and hA3 ARs. Competition experiments to hA1AR were carried out by incubating 1 nM [^3H]-8-cyclopentyl-1,3-dipropylxanthine ([^3H]-DPCPX) with membrane suspension (50 μg of protein/100 μL) and different concentrations of the examined compounds at 25 °C for 90 min in 50 mM Tris HCl, pH 7.4. Non-specific binding was defined as binding in the presence of 1 μM DPCPX and was always <10% of the total binding. Inhibition experiments to hA2A ARs were performed by incubating the radioligand [^3H]-4-(-2-[7-amino-2-{2-furyl}{1,2,4}triazolo{2,3-a} {1,3,5}triazin-5-yl-amino]ethyl)phenol ([^3H]-ZM241385) (1 nM) with the membrane suspension (50 μg of protein/100 μL) and different concentrations of the examined compounds for 60 min, at 4 °C, in 50 mM Tris HCl (pH 7.4), 10 mM MgCl2. Non-specific binding was determined in the presence of ZM241385 (1 μM) and was about 20% of the total binding. Competition binding experiments to A3ARs were carried out by incubating the membrane suspension (50 μg of protein/100 μL) with 0.5 nM [^125I]-N6-(4-aminobenzyl)-N-methylcarboxamidoadenosine ([^125I]-ABMECA) in the presence of different concentrations of the examined compounds for an incubation time of 120 min, at 4 °C, in 50 mM Tris HCl (pH 7.4), 10 mM MgCl2, 1 mM EDTA. Non-specific binding was defined as binding in the presence of 1 μM ABMECA and was always <10% of the total binding. Bound and free radioactivity were separated by filtering the assay mixture through Whatman GF/B glass-fiber filters, using a Brandel cell harvester (Brandel Instruments, Unterföhring, Germany). The filter bound radioactivity was counted by Packard Tri Carb 2810 TR scintillation counter (Perkin Elmer).
(§3) The protein concentration was determined according to a Bio-Rad method, with bovine albumin as a standard reference. Inhibitory binding constant (Ki) values were calculated from those of IC50 according to the Cheng–Prusoff equation, Ki = IC50/(1 + [C*]/KD*), where [C*] is the concentration of the radioligand, and KD* its dissociation constant. Ki and IC50 values were calculated by non-linear regression analysis, using the equation for a sigmoid concentration-response curve (Graph-PAD Prism, San Diego, CA, USA).

The target of series [2] is T2, hA1AR (Homo sapiens, UniProt P30542).
T2 construct: host or cells: CHO cells
T2 sequence (P30542 1-326): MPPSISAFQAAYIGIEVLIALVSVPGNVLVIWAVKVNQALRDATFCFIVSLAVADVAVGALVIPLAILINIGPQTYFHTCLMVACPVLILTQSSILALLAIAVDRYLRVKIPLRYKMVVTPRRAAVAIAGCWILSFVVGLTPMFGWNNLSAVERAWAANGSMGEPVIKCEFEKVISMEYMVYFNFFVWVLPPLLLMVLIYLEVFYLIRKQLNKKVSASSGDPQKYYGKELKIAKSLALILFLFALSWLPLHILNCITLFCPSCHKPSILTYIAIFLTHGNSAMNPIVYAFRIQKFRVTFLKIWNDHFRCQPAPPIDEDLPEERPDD
The experiment in a line: Competition binding, [3H]DPCPX, hA1 CHO cell membranes. The note with it: displacement of [3H]DPCPX, hA1 CHO cells; mean ± SEM of four assays. As to the method:
as §1, §2, §3

Series [3] deals with T2, hA1AR. The experiment in a line: Modulation of Forskolin-stimulated cAMP levels in hA1 CHO cells. Type of series: cell-based. The note with it: for EC50: footnote c, mean ± SEM of four experiments, read-out: hA1AR EC50 or IC50, potency to modulate Forskolin-stimulated cAMP levels; for hA1AR Efficacy: normalized: CCPA full agonist = 100%, DPCPX inverse agonist = −100%; for hA1AR Profile: pharmacological profile in cAMP assay. On the procedure:
The amino-3,5-dicyanopyridines 1–21 were tested for their affinity at hA1, hA2A and hA3 ARs, stably transfected in Chinese Hamster Ovary (CHO) cells. Moreover, they were also studied as hA2B agonists by evaluating their stimulatory effect on cAMP production in CHO cells, stably expressing the hA2B AR. […] Due to their interesting pan profile, both compounds 1 and 5 were evaluated as AR agonists also at the hA2A and hA3 subtypes.
as §1
CHO cells transfected with hAR subtypes were washed with phosphate-buffered saline, detached with tripsine and centrifuged for 10 min at 200× g. Cells were seeded in a 96-well white half-area microplate (Perkin Elmer, Boston, USA) in a stimulation buffer composed of Hank Balanced Salt Solution, 5 mM HEPES, 0.5 mM Ro 20–1724, 0.1% BSA. The cAMP levels were then quantified by using the AlphaScreen cAMP Detection Kit (Perkin Elmer, Boston, MA, USA), following the manufacturer’s instructions. At the end of the experiments, the plates were read with a Perkin Elmer EnSight Multimode Plate Reader.

The target in series [4] is T3, hA2AAR (Homo sapiens, UniProt P29274).
T3 construct: host or cells: CHO cells
The series can be described thus: Competition binding, [3H]ZM241385, hA2A CHO cell membranes. The settings on record: displacement of [3H]ZM241385, hA2A CHO cells; mean ± SEM of four assays. On the procedure:
as §1, §2, §3

T3 sequence (P29274 whole entry): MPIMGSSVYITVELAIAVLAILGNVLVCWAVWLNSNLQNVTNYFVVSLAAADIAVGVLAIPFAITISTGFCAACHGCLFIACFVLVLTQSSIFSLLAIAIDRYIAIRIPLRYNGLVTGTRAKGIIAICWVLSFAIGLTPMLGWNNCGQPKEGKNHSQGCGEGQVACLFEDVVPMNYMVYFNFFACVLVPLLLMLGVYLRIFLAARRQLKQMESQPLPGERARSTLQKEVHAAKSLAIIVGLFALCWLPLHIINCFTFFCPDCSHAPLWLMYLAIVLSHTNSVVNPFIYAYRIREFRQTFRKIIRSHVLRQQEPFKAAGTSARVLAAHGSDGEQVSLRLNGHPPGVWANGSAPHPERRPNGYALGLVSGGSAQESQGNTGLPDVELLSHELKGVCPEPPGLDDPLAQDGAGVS

Take `N#Cc1c(N)nc(SCc2ncc[nH]2)c(C#N)c1-c1cccs1` [Compound 5, 2-Amino-6-[(1H-imidazol-2-ylmethyl)sulfanyl]-4-(thiophen-2-yl)pyridine-3,5-dicarbonitrile]: the melting point is 246 to 248 °C. Besides, in series [1], the Ki amounted to 0.025 ± 0.002 µM. In series [2], the affinity, expressed as Ki, was 0.0025 ± 0.0002 µM. Also, in series [3], the half-maximal effective concentration (EC50) came to 0.00195 ± 0.00016 µM, the “hA1AR Efficacy” value came out at 75 ± 5% and the “hA1AR Profile” value is recorded as “Partial Agonist”. For the same compound, in series [4], the Ki was determined as 0.024 ± 0.002 µM.
In series [1], `N#Cc1c(N)nc(SCc2ncc[nH]2)c(C#N)c1-c1ccco1` [Compound 1, 2-Amino-4-(furan-2-yl)-6-[(1H-imidazol-2-ylmethyl)sulfanyl]pyridine-3,5-dicarbonitrile] returned a Ki of 0.052 ± 0.005 µM. In series [2], this compound gave a Ki of 0.00963 ± 0.00161 µM. In series [3], the EC50 turned out to be 0.0122 ± 0.0012 µM, the “hA1AR Efficacy” value is 31 ± 3% and the “hA1AR Profile” value is listed as “Partial Agonist”. In series [4], this compound had a Ki of 0.021 ± 0.002 µM.
